Data set [1] can be described thus: particle size distribution of nebulized aerosol, laser diffraction. It is filed as physicochemical. To be noted: solutions in WFI 60 to 140 mg/ml, fill 2 to 4 ml.
Protocol: Droplet size distributions for aerosolized drug and placebo solutions were measured using the Sympatec HELOS laser diffraction spectrometer. In preparation for a run, the nebulizer was connected to the compressed air line, the flow turned on and the pressure regulator set to a driving pressure to generate a flow rate of 8 LPM through the nebulizer. The flow was then turned off by closing the flow shut-off valve. Next, the nebulizer was connected to a “T” piece with one port plugged, and the other port coupled to a mouthpiece. The nebulizer was then filled with drug solution, and mounted so that nebulizer mouthpiece was aligned parallel to the nozzle of the Rodos dry powder disperser apparatus already installed in the spectrometer. The laser diffraction system was setup to automatically trigger when it sensed the presence of the aerosol generated by the nebulizer. Measurements were initiated by opening the shut-off valve to pressurize the nebulizer and generate the aerosol. A total of 6 particle size distribution scans were taken for each nebulizer run, and then averaged to provide representative size distribution results.
Data set [2] in a line: density of Vancomycin HCl solutions. It is filed as physicochemical. The procedure: On the final solution, pH and density were measured and appearance was evaluated. […]
For data set [3], the system named is CD rats. The experiment in a line: 14-consecutive day nose-only inhalation toxicity and recovery. Type of data set: in vivo, rat. The method, then:
This Example involved evaluating the potential toxicity and recovery resulting from a 14-consecutive day, nose-only inhalation administration of vancomycin hydrochloride (vancomycin) to CD rats.
The solution was used to generate aerosolized vancomycin for all vancomycin exposure groups.
Nose-only exposures were conducted in a “flow-past” cylindrical inhalation chamber placed inside a steel-framed Plexiglas secondary containment box. The chamber contained 48 animal ports, each compatible with a single nose-only exposure tube, aerosol concentration sampling device (e.g., filter), or oxygen monitor.
The total air flow through the exposure system was balanced to achieve individual animal port flows of ˜500 mL/min (port flow approximated based on total chamber flow). Measured flows included sample flow rate, nebulizer flow rate, dilution flow rate (chamber make-up air), and chamber exhaust flow.
Vancomycin solution was aerosolized with two Aerotech II nebulizers operated at 20 psi driving pressure. The target aerosol Vancomycin concentration for all exposure levels was ˜1.0 mg/L.
Aerosolized vancomycin was administered to 3 groups of male and female CD rats (available from Charles River Laboratories, Kingston, N.Y.) for durations of 30 min (Low), 90 min (Mid), and 180 min (High). A control group was exposed for 180 min to aerosols generated from a normal saline solution. Groups of rats from the Control and High level 14-day exposures were also studied following a 14-day recovery period. Endpoints included clinical observations, body weights, clinical pathology (hematology, clinical chemistry), urinalyses, organ weights, and histopathology.

Data set [4] can be described thus: pH of Vancomycin HCl solutions, bulk solution and reconstituted lyophilizate. Type of data set: physicochemical. The method, then: […] On the final solution, pH and density were measured and appearance was evaluated. After lyophilization the following analyses were performed on the final product: • water content by Karl Fischer titration; • appearance of the cake, • reconstitution time, • appearance/clarity, • pH after reconstitution.

Data set [5] can be described thus: solubility study of Vancomycin HCl in water (saturated solution, UV 280 nm). To be noted: thermodynamic from solid, water for injection, stirred 48 h, filtered, read-out: maximum solubility in water. It is filed as physicochemical. The procedure: A saturated solution of Vancomycin HCl in water for injection was prepared by adding under stirring the active agent to the solvent.
Suspension was stirred for 48 h in order to reach the equilibrium conditions for the dissolution.
Suspensions was filtered first through a paper filter and then through a 0.45 μm PVDF filter discarding the first drops of solution which could have been diluted because of the binding of the product to the membrane.
The filtrated solutions of Vancomycin HCl in water coming from the respective saturated solutions, was diluted to reach a final concentration which gave an Abs value at λ=280 nm included into the calibration curve.
Each diluted solution was analysed in triplicate with UV at λ=280 nm. For each solution the absorbances have been mediated and the final value has been substituted in the respective calibration curve equation to calculate the concentration.

Data set [6] is described as follows: 14-consecutive day face mask inhalation toxicity and recovery. To be noted: both sexes, beagle, dog, in vivo, inhaled, high exposure level (60 min). It is filed as in vivo, dog. The procedure: (§1) This Example involved evaluating the potential toxicity and recovery resulting from a 14-consecutive day, face mask inhalation administration of vancomycin hydrochloride to beagle dogs.
(§2) Within 2 hours prior to usage, a vancomycin nebulizer solution having a concentration of 120 mg/ml was formed by dissolving vancomycin hydrochloride (available from Alpharma, Copenhagen, Denmark) in sterile water for injection USP (available from B. Braun Medical Inc., Bethlehem, Pa.). The solution was used to generate aerosolized vancomycin for all vancomycin exposure groups.
(§3) The exposure system consisted of a single, cylindrical, plexiglass inhalation chamber (volume of ˜23.7 L, 14.61-cm radius, 35.56-cm height). The chamber was supplied with two Aerotech II nebulizers operated at ˜40 psi. Nebulized test article and nebulizer air supply was diluted with ˜10 L/min HEPA-filtered dilution air. The flow through the system was ˜36 L/min.
(§4) The aerosolized vancomycin was administered via a face mask to 3 groups of male and female beagle dogs for durations of 15 min (Low), 30 min (Mid), and 60 min (High). A control group was exposed for 60 min to aerosols generated from normal saline solution, i.e., 0.9% sodium chloride injection USP (available from B. Braun Medical Inc.).
(§5) Groups of dogs from the Control and High level 14-day exposures were also studied following a 14-day recovery period. Endpoints for all groups of dogs included physical examinations, clinical observations, body weights, opthalmology, cardiovascular EKG, clinical pathology (hematology, clinical chemistry), urinalyses, organ weights, histopathology, and toxicokinetics.

Data set [7] deals with beagle dogs. Described as above. Type of data set: in vivo, dog. The method, then:
as §1, §2, §3, §4, §5

A short description of data set [8]: osmolality of gentamicin sulfate solutions. It is filed as physicochemical. The procedure: Solubility in water was determined via visual assessment. Osmolality and pH were also determined. […] The solubility was determined by visual assessment.
Setting [9] is: exposure aerosol from 120 mg/ml solution.

Broadly, the solubility is how much of the substance goes into solution per volume. By NOAEL is commonly meant the highest tested level that showed no adverse finding.

Where a name gives a salt, the structure may show the parent alone. Read-outs that look alike come from different tables or passages of the source.

In the case of `CN[C@H](CC(C)C)C(=O)N[C@H]1C(=O)N[C@@H](CC(N)=O)C(=O)N[C@H]2C(=O)N[C@H]3C(=O)N[C@H](C(=O)N[C@H](C(=O)O)c4cc(O)cc(O)c4-c4cc3ccc4O)[C@H](O)c3ccc(c(Cl)c3)Oc3cc2cc(c3O[C@@H]2O[C@H](CO)[C@@H](O)[C@H](O)[C@H]2O[C@H]2C[C@](C)(N)[C@H](O)[C@H](C)O2)Oc2ccc(cc2Cl)[C@H]1O` [Vancomycin HCl, vancomycin hydrochloride], the “volume weighted median size” value in data set [1] is given as 2-3 μm. Also, the Density in data set [2] (100.12 mg/mL in water) amounted to 1.027 g/mL; in data set [2] (110.16 mg/mL in water), 1.034 g/mL; in data set [2] (120.26 mg/mL in water) it was 1.037 g/mL; in data set [2] (130.5 mg/mL in water), 1.042 g/mL; in data set [2] (140.8 mg/mL in water), 1.046 g/mL. The “no observed effect level” value in data set [3] (14-day inhalation) was “not established”. In addition, the tolerability of exposures entry is listed as “well-tolerated” in data set [3] (30, 90, 180 min/day, 14 days, about 1.2 mg/L) and “well-tolerated” in data set [7] (15, 30, 60 min/day, 14 days, about 1.4-1.5 mg/L). Besides, the lung weight increase in data set [3] (High exposure level (180 min)) was ~19 % of control; in data set [3] (Low exposure level (30 min)) it was “approximately 8 % of control”; in data set [3] (Mid exposure level (90 min)), ~20 % of control. Moreover, the “increase in aspartate aminotransferase (AST) values” in data set [3] (Mid and High exposure levels) was 28-46%. In addition, the “neutrophils (hematology)” value in data set [3] (Mid and High exposure levels) was “statistically significant increase”. Further, the “histopathologic findings after recovery” value in data set [3] (after 14 days of recovery, High level) is on record as “substantial diminution of these findings”. In data set [3] (all exposure levels), the body weight entry is on record as “no vancomycin treatment related effects”. In data set [3] (all exposure levels), the clinical observations entry is “no vancomycin related effects”. Also, in data set [3] (all exposure levels), the “serum indicators of kidney function or urinalysis” value was “No vancomycin related changes”. Moreover, the survival result in data set [3] (all exposure levels, 14 days) is “All rats survived to scheduled necropsy”; in data set [7] (all exposure levels, 14 days) it was “All dogs survived to scheduled necropsy”. For the same compound, the “exposure related histopathologic findings” value in data set [3] (end of 14-day exposure) was “limited to the respiratory tract”. Further, the “mean particle size, mass median aerodynamic diameter” value is listed as 2.0-2.6 μm in data set [3] (setting [9]) and 1.9-2.6 μm in data set [7] (setting [9]). The pH in data set [4] (100.12 mg/mL in water) is given as 3.8-4.1; in data set [4] (110.16 mg/mL in water), 3.7-3.9; in data set [4] (120.26 mg/mL in water) it was 3.6-3.8; in data set [4] (130.5 mg/mL in water), 3.5-3.7; in data set [4] (140.8 mg/mL in water), 3.4-3.5. The solubility at 48 h in data set [5] amounted to 141 mg/mL. In addition, the NOAEL at 14 days is 9 mg/kg in data set [6] (read-out: no observed adverse effect level (NOAEL), deposited lung dose) and 45 mg/kg in data set [6] (read-out: no observed adverse effect level (NOAEL), inhaled dose). The “recovery of histopathological effects” value in data set [7] (14-day recovery, High level) was “complete after 14 days”. Besides, the “physical examinations, clinical observations, opthalmology, ECG, hematology, clinical chemistry, urinalyses, gross necropsy, organ weights” value in data set [7] (all exposure levels) was “no vancomycin related effects”. Further, the “effects of exposure in histopathology” value in data set [7] (end of 14-day exposure) was “limited to microscopic findings in the lung”.

As to gentamicin sulfate, the Osmolality in data set [8] (20 mg/ml active in 0.9% saline) is 318 mOsmol/kg; in data set [8] (20 mg/ml active in WFI), 61 mOsmol/kg; in data set [8] (40 mg/ml active in 0.9% saline), 353 mOsmol/kg; in data set [8] (40 mg/ml active in WFI), 101 mOsmol/kg; in data set [8] (80 mg/ml active in 0.9% saline), 445 mOsmol/kg; in data set [8] (80 mg/ml active in WFI) it was 197 mOsmol/kg. For the same compound, the Osmolality in data set [8] (120 mg/ml active in WFI) was 275 mOsmol/kg; in data set [8] (200 mg/ml active in WFI) it was 524 mOsmol/kg; in data set [8] (250 mg/ml active in WFI) it was 1178 mOsmol/kg; in data set [8] (300 mg/ml active in WFI), 2013 mOsmol/kg.

(Values after patent US9205050B2, “Antibiotic formulations, unit doses, kits and methods” (Bayer Intellectual Property GmbH, priority 2005, dated 2015).)
